{
  "source": "patent EP0357495A2",
  "about": "“3'Azido-3'-deoxythymidine (AZT) derivatives active against the AIDS virus” (IRE-CELLTARG S.A., priority 1988, dated 1990)",
  "key": {"[1]": {"test_system": "virus MSV Moloney sarcoma virus", "assay": "in vivo activity in MSV-infected NMRI mice (survival, tumour appearance)", "design": "species or system souris NMRI", "experimental": "L'AZT et ses dérivés selon l'invention ont été testés in vivo chez la souris NMRI (souriceaux de 2 jours) infectée par le virus MSV Moloney sarcoma virus). La drogue est adminitrée i.p. pendant 5 jours dans un volume de 25 µl/g de poids corporel. Le virus est inoculé dans la cuisse gauche de l'animal deux heures après la première administration de drogue. Les animaux sont contrôlés tous les jours selon trois critères : survie, apparition de la tumeur et poids (toxicité) pendant 50 jours. Les résultats sont repris au tableau 7 et dans les figures 8 à 11. [formula]\nOn entend par temps médian de survie le temps où la moitié des souris sont encore vivantes. [formula] Tableau 7"}, "[2]": {"test_system": "cellules MT4", "assay": "cytotoxicity on non-infected MT4 cells (MTT method)", "assay_type": "cell-based", "experimental": "Les produits (AZT, AZT-5′ hémisuccinyl et AZT 5′-leucyl) à différentes concentrations ont été mis en présence de cellules MT4 (4 X 10⁴ cellules par puits de microtray) infectées ou non avec 100 CCID₅₀ de virus HIV-1 (souche HTLV-IIIB). La CCID₅₀ représente la quantité de virus à rajouter pour obtenir une infection de 50 % des cellules (dose infectieuse de cellules en culture 50).\nAprès cinq jours d'incubation à 37°C, le nombre de cellules vivantes a été déterminé par la méthode au MTT, basée sur la réduction par les cellules vivantes du 3′-(4, 5-diméthylthiazol-2-yl)-2,5-diphényltétrazoliumbromide, jaune, en formazan, bleu. L'activité antivirale et la cytotoxicité sont exprimées sous forme de ED₅₀ et de CD₅₀. La CD₅₀ représente la dose qui tue 50 % des cellules non infectées et la ED₅₀ représente la dose qui protège 50 % des cellules de l'infection virale.\nEn effet l'AZT entre en compétition avec la thymidine au niveau des enzymes de phosphorylation qui vont le transformer en AZT triphosphate (AZT TP) qui est la forme active du produit. Un excès de thymidine réduit donc très fortement l'activité de l'AZT, ce qui se traduit par une ED₅₀ plus élevée. Par conséquent, si le dérivé de l'AZT doit son activité à la libération d'AZT qui à son tour est phosphorylé en AZT TP, un excès de thymidine aura également pour effet d'élever la ED₅₀ du dérivé. La thymidine étant cytotoxique à la concentration utilisée, il est nécessaire de rajouter de la 2′déoxycytidine pour empêcher cette toxicité.\nLes protocoles expérimentaux sont ceux décrits à l'exemple 9 3.1) et 9 3)."}, "[3]": {"conditions": "AZT-5′ hémisuccinyl 6.8 mg/kg/jour i.p. 5 days"}, "[4]": {"conditions": "AZT-5′ hémisuccinyl 34 mg/kg/jour i.p. 5 days"}, "[5]": {"conditions": "AZT-5′ hémisuccinyl 170 mg/kg/jour i.p. 5 days"}},
  "data": [
    {"smiles": "Cc1cn([C@H]2C[C@H](N=[N+]=[N-])[C@@H](COC(=O)CCC(=O)O)O2)c(=O)[nH]c1=O", "note": "[AZT 5′hémisuccinyl, 5′-hémisuccinyl-3′-azido-3′-déoxythymidine]", "values": [
      {"measurement": "% ILS", "setting": "[1]; [3]", "result": 20.2, "unit": "%"},
      {"measurement": "% ITL", "setting": "[1]; [3]", "result": 52.4, "unit": "%"},
      {"measurement": "Temps moyen d'apparition de la tumeur", "setting": "[1]; [3]", "result": 7.3, "unit": "jours"},
      {"measurement": "Temps moyen de survie", "setting": "[1]; [3]", "result": 11.5, "unit": "jours"},
      {"measurement": "Temps médian d'apparition de la tumeur", "setting": "[1]; [3]", "result": 6.8, "unit": "jours"},
      {"measurement": "Temps médian de survie", "setting": "[1]; [3]", "result": 11.0, "unit": "jours"},
      {"measurement": "% ILS", "setting": "[1]; [4]", "result": ">446", "unit": "%"},
      {"measurement": "% ITL", "setting": "[1]; [4]", "result": 145, "unit": "%"},
      {"measurement": "Temps moyen d'apparition de la tumeur", "setting": "[1]; [4]", "result": ">25.5", "unit": "jours"},
      {"measurement": "Temps moyen de survie", "setting": "[1]; [4]", "result": ">41", "unit": "jours"},
      {"measurement": "Temps médian d'apparition de la tumeur", "setting": "[1]; [4]", "result": 11, "unit": "jours"},
      {"measurement": "Temps médian de survie", "setting": "[1]; [4]", "result": ">50", "unit": "jours"},
      {"measurement": "% ILS", "setting": "[1]; [5]", "result": 42.1, "unit": "%"},
      {"measurement": "% ITL", "setting": "[1]; [5]", "result": 257, "unit": "%"},
      {"measurement": "Temps moyen d'apparition de la tumeur", "setting": "[1]; [5]", "result": ">23", "unit": "jours"},
      {"measurement": "Temps moyen de survie", "setting": "[1]; [5]", "result": ">22.7", "unit": "jours"},
      {"measurement": "Temps médian d'apparition de la tumeur", "setting": "[1]; [5]", "result": 16, "unit": "jours"},
      {"measurement": "Temps médian de survie", "setting": "[1]; [5]", "result": 13, "unit": "jours"},
      {"measurement": "toxicité (compared with AZT, in words)", "setting": "[2]; comparison with AZT", "result": "considérablement inférieure"},
      {"measurement": "CD₅₀", "setting": "[2]; tableau 2, non-infected MT4 cells, 5 days at 37°C, dose that kills 50 % of cells", "result": 196, "unit": "µM"},
      {"measurement": "CD₅₀", "setting": "[2]; tableau 4, MT-4, with thymidine (250µM) + 2′déoxy-cytidine (500 µM)", "result": 362, "unit": "µM"},
      {"measurement": "CD₅₀", "setting": "[2]; tableau 4, MT-4, without thymidine / 2′déoxycytidine", "result": 295, "unit": "µM"}
    ]}
  ]
}
